# From patent US11028090B2 (Dong Wha Pharm. Co., Ltd., priority 2017, dated 2021)
# pIC50: −log10 of the molar value. Where two headings read alike, the source gives them in different places.
# Legend:
# [1] = test system: acute myelogenous leukemia cells (MV-4-11 cells); assay: Cytotoxicity to acute myelogenous leukemia cells (MV-4-11 cells), CCK-8; details: Homo sapiens, MV4-11, 72 h
# [2] = target: BRD4 (BD1+BD2) bromodomain (Homo sapiens (Human), UniProt O60885); assay: BRD4 binding inhibition (AlphaScreen, GST-BRD4 vs tetraacetylated histone H4 peptide)
# Procedure, shortened: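 GST-BRD4 (BD1+BD2) and biotinylated tetraacetyl-histone H4 peptide, each at 100 nM in HEPES pH 7.4 buffer with BSA and DTT, were combined with compound. Glutathione acceptor and streptavidin donor beads were added, then incubated 30 min at room temperature in the dark. Read-out was AlphaScreen signal.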
# [3] = read-out: IC50, cytotoxicity against acute myelogenous leukemia cells
# [4] = read-out: MV-4-11 Cytotoxicity IC50
# [5] = GST-BRD4 (BD1+BD2) / biotinylated acetyl-histone H4 (Lys5,8,12,16) peptide, read-out: IC50, BRD4 binding inhibition
# [6] = GST-BRD4 (BD1+BD2) vs biotinylated acetyl-histone H4 peptide, AlphaScreen, read-out: BRD4 IC50
"pIC50 [2, 5]","pIC50 [2, 6]",SMILES,"pIC50 [1, 3]","pIC50 [1, 4]"
≥ 8.00,8.00,"CCOc1ccc2c(c1)nc(NCCCCNC(=O)OCC(C)C)c1nnc(C)n12 [Example 444, [4-(7-ethoxy-1-methyl-[1,2,4]triazolo[4,3-a]quinoxaline-4-ylamino)-butyl]-carbamic acid isobutylester]",≥ 6.70,6.92
≥ 7.30,7.39,"COCCOc1cc2nc(NCCCCNC(=O)NC(C)(C)C)c3nnc(C)n3c2cc1OCCOC [Example 169, 1-{4-[7,8-bis-(2-methoxy-ethoxy)-1-methyl-[1,2,4]triazolo[4,3-a]quinoxaline-4-ylamino]-butyl}-3-tert-butyl-urea]",–,6.07
≥ 8.00,8.22,"COc1c(C)ccc2c1nc(NCCCCNC(=O)[C@@H](O)C(C)C)c1nnc(C)n12 [Example 137, 2-(S)-hydroxy-N-[4-(6-methoxy-1,7-dimethyl-[1,2,4]triazolo[4,3-a]quinoxaline-4-ylamino)-butyl]-3-methyl-butyramide]",–,6.43
≥ 8.00,8.05,COc1cc2nc(NCCCCNC(=O)CC(C)C)c3nnc(C)n3c2cc1NC(=O)Cc1ccccc1 [Example 564],–,6.21
≥ 7.30,7.46,"Cc1nnc2c(NCCCCN)nc3cc4c(cc3n12)OCCO4 [Example 179, N^1-(1-methyl-8,9-dihydro-7,10-dioxa-2,3,5,11b-tetraaza-cyclopenta[a]anthracene-4-yl)-butane-1,4-diamine ditrifluoroacetic acid]",–,6.19
≥ 7.30,7.64,"COc1cc2nc(NCCCCC(=O)NCc3ccccc3)c3nnc(C)n3c2cc1OC [Example 651, 5-(7,8-dimethoxy-1-methyl-[1,2,4]triazolo[4,3-a]quinoxaline-4-ylamino)-pentanoic acid-benzylamide]",≥ 6.70,6.92
≥ 7.30,7.42,"COCCOc1cc2nc(NCCCCNC(=O)c3ccccc3)c3nnc(C)n3c2cc1OCCOC [Example 170, N-{4-[7,8-bis-(2-methoxy-ethoxy)-1-methyl-[1,2,4]triazolo[4,3-a]quinoxaline-4-ylamino]-butyl}-benzamide]",–,6.28
≥ 7.30,8.30,"CCc1nnc2c(NCCCCNC(=O)OC(C)C)nc3cc(OC)ccc3n12 [Example 623, [4-(7-methoxy-1-ethyl-[1,2,4]triazolo[4,3-a]quinoxaline-4-ylamino)-butyl]-carbamic acid isopropylester]",–,6.40
≥ 7.30,7.41,"Cc1nnc2c(NCCCCNC(=O)c3ccccc3)nc3ccc(OC(F)(F)F)cc3n12 [Example 267, N-[4-(1-methyl-8-trifluoromethoxy-[1,2,4]triazolo[4,3-a]quinoxaline-4-ylamino)-butyl]-benzamide]",–,6.24
≥ 7.30,7.40,"COCCOc1cc2nc(NCCCCNC(=O)c3ccc(C)nc3Cl)c3nnc(C)n3c2cc1OCCOC [Example 172, N-{4-[7,8-bis-(2-methoxy-ethoxy)-1-methyl-[1,2,4]triazolo[4,3-a]quinoxaline-4-ylamino]-butyl}-2-chloro-6-methyl-nicotinamide]",–,6.55
≥ 7.30,7.52,"Cc1nnc2c(NCCCCNC(=O)[C@@H](NC(=O)OC(C)(C)C)C(C)C)nc3cc(N4CCOCC4)ccc3n12 [Example 502, (S)-{2-methyl-1-[4-(1-methyl-7-morpholine-4-yl-[1,2,4]triazolo[4,3-a]quinoxaline-4-ylamino)-butylcarbamoyl]-propyl}-carbamic acid-tert-butylester]",–,6.48
≥ 7.30,7.70,"COCCOc1ccc2c(c1)nc(NCCCCNC(=O)OCc1ccccc1)c1nnc(C)n12 [Example 373, {4-[7-(2-methoxy-ethoxy)-1-methyl-[1,2,4]triazolo[4,3-a]quinoxaline-4-ylamino]-butyl}-carbamic acid benzylester]",–,6.38
–,7.28,"COc1cc2c(cc1C)nc(NCCCCNC(=O)CC(C)C)c1nnc(C)n12 [Example 151, N-[4-(8-methoxy-1,7-dimethyl-[1,2,4]triazolo[4,3-a]quinoxaline-4-ylamino)-butyl]-3-methyl-butyramide]",–,6.42
≥ 7.30,7.55,"COc1cc(C)c2nc(NCCCCNC(=O)CC(C)C)c3nnc(C)n3c2c1 [Example 160, N-[4-(8-methoxy-1,6-dimethyl-[1,2,4]triazolo[4,3-a]quinoxaline-4-ylamino)-butyl]-3-methyl-butyramide]",≥ 6.70,7.15
≥ 8.00,8.00,"COc1ccc2c(c1)nc(NCCCCNC(=O)[C@@H](NC(=O)OCC(C)C)C(C)C)c1nnc(C)n12 [Example 318, (S)-{1-[4-(7-methoxy-1-methyl-[1,2,4]triazolo[4,3-a]quinoxaline-4-ylamino)-butylcarbamoyl]-2-methyl-propyl}-carbamic acid isobutylester]",≥ 6.70,7.49
≥ 7.30,7.96,"COc1ccc2c(c1)nc(NCCCCC(=O)NC(C)C)c1nnc(C)n12 [Example 654, 5-(7-methoxy-1-methyl-[1,2,4]triazolo[4,3-a]quinoxaline-4-ylamino)-pentanoic acid isopropylamide]",–,6.57
≥ 8.00,8.52,"COCCOc1ccc2c(c1)nc(NCCCCNC(=O)CCC1CCCC1)c1nnc(C)n12 [Example 393, 3-cyclopentyl-N-{4-[7-(2-methoxy-ethoxy)-1-methyl-[1,2,4]triazolo[4,3-a]quinoxaline-4-ylamino]-butyl}-propionamide]",≥ 6.70,6.77
≥ 8.00,8.70,"COCCOc1ccc2c(c1)nc(NCCCCNC(=O)[C@@H](O)C(C)C)c1nnc(C)n12 [Example 389, 2-(S)-hydroxy-N-{4-[7-(2-methoxy-ethoxy)-1-methyl-[1,2,4]triazolo[4,3-a]quinoxaline-4-ylamino]-butyl}-3-methyl-butyramide]",≥ 6.70,7.10
≥ 8.00,8.22,"Cc1nnc2c(NCCCCNC(=O)[C@@H](O)C(C)C)nc3cc(F)c(F)cc3n12 [Example 39, N-[4-(7,8-difluoro-1-methyl-[1,2,4]triazolo[4,3-a]quinoxaline-4-ylamino)-butyl]-2-(S)-hydroxy-3-methyl-butyramide]",–,6.72
≥ 7.30,7.89,"COCCOc1ccc2c(c1)nc(NCCCCNC(=O)CC(C)C)c1nnc(C)n12 [Example 365, N-{4-[7-(2-methoxy-ethoxy)-1-methyl-[1,2,4]triazolo[4,3-a]quinoxaline-4-ylamino]-butyl}-3-methyl-butyramide]",≥ 6.70,7.22
≥ 7.30,7.68,"C/C=C/C(=O)NCCCCNc1nc2cc(OC)c(OC)cc2n2c(C)nnc12 [Example 72, butene-2-oic acid-[4-(7,8-dimethoxy-1-methyl-[1,2,4]triazolo[4,3-a]quinoxaline-4-ylamino)-butyl]-amide]",–,6.33
–,7.01,"CCC(C)C(=O)NCCCCNc1nc2cc(OC)ccc2n2c(C)nnc12 (centres unmarked) [Example 291, N-[4-(7-methoxy-1-methyl-[1,2,4]triazolo[4,3-a]quinoxaline-4-ylamino)-butyl]-2-methyl-butyramide]",–,6.54
≥ 8.00,9.00,"COc1cc2nc(-c3ccc4c(c3)nc(NCCCCNC(=O)CC(C)C)c3nnc(C)n34)[nH]c2cc1OC [Example 227, N-{4-[7-(5,6-dimethoxy-1H-benzoimidazole-2-yl)-1-methyl-[1,2,4]triazolo[4,3-a]quinoxaline-4-ylamino]-butyl}-3-methyl-butyramide]",≥ 6.70,7.41
≥ 7.30,7.39,"COc1ccc2c(c1)nc(NCCCCNC(=O)[C@H](C(C)C)N1CCC(O)CC1)c1nnc(C)n12 [Example 316, 2-(S)-(4-hydroxy-piperidine-1-yl)-N-[4-(7-methoxy-1-methyl-[1,2,4]triazolo[4,3-a]quinoxaline-4-ylamino)-butyl]-3-methyl-butyramide]",–,6.14
≥ 7.30,7.77,"Cc1nnc2c(NCCCCNC(=O)OC(C)(C)C)nc3cc4c(cc3n12)OCCO4 [Example 178, [4-(1-methyl-8,9-dihydro-7,10-dioxa-2,3,5,11b-tetraaza-cyclopenta[a]anthracene-4-ylamino)-butyl]-carbamic acid-tert-butylester]",–,6.36
≥ 7.30,7.64,"Cc1nnc2c(NCCCCNC(=O)CC(C)C)nc3cc(O)ccc3n12 [Example 340, N-[4-(7-hydroxy-1-methyl-[1,2,4]triazolo[4,3-a]quinoxaline-4-ylamino)-butyl]-3-methyl-butyramide]",≥ 6.70,7.27
≥ 8.00,8.05,"COc1cc2nc(NCCCCNC(=O)Cc3cccs3)c3nnc(C)n3c2cc1C(F)(F)F [Example 480, N-[4-(7-methoxy-1-methyl-8-trifluoromethyl-[1,2,4]triazolo[4,3-a]quinoxaline-4-ylamino)-butyl]-2-thiophene-2-yl-acetamide]",≥ 6.70,7.10
